Data taken from US20260265305A1, “POLYPEPTIDE DERIVATIVE FOR ORAL DELIVERY” (Hangzhou Sciwind Biosciences Co., Ltd., priority 2023, published 2026).
Where two headings read alike, the source gives them in different places. Each block holds one molecule with its values, some of them ahead of it. Numbered stars: 1 amine (or outer) side, 2 acyl side, 3 side chain; on linkers, the order of the positions; unused ones are H or OH. Square brackets hold non-standard residues; d marks the D form. Peptide text beside a SMILES is read from it. * marks the point of attachment. C20 diacid = O=C(O)CCCCCCCCCCCCCCCCCCC(=O)*; C18 diacid = O=C(O)CCCCCCCCCCCCCCCCC(=O)*; βAsp = O=C(O)[C@H](CC(=O)[*:2])N[*:1]; Trx = NC[C@H]1CC[C@H](C(=O)O)CC1; AEEA = NCCOCCOCC(=O)O; Inp = O=C(O)C1CCNCC1

How the values were obtained:
[1] = Heat accelerated stability assay of polypeptide solutions (40° C., pH about 7.4), reversed phase chromatography; type: physicochemical; conditions: 40° C.; for Concentration change on 26 d / Concentration change on 7 d: pH about 7.4, 1 mg/mL; for Concentration change on 26 d / Purity change on 26 d: Day 26; for Purity change on 7 d / Purity change on 26 d: reversed phase chromatography 214 nm; for Purity change on 7 d / Concentration change on 7 d: Day 7; for Purity change on 7 d: purity on 7 d − purity on 0 d; for Purity change on 26 d: purity on 26 d − purity on 0 d
Method in brief: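 Polypeptide derivative lyophilisate (1 mg/mL) with sodium dihydrogen phosphate (1.42 mg/mL) in water, pH about 7.4, sterile-filtered, vialed and held at 40° C; sampled on days 7 and 26. After centrifugation, concentration and purity (target/total peak area) by C18 RP-HPLC, TFA/ACN gradient, 280 and 214 nm.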

[2] = Animal study: weight change and accumulated food intake in SD rats after subcutaneous dosing; type: in vivo, SD (Sprague Dawley) rats; conditions: 10 nmol/kg subcutaneous
Excerpt: SD (Sprague Dawley) rats weighing 200-250 g were used for this study. The rats were received at least 10-14 days before the study began such that they could accommodate to the experimental environment. After arrival, they were exposed to a reversed light/dark cycle (i.e., lights switched off in daytime and on in nighttime) for two weeks and were individually housed for the first week so as to ensure high data accuracy and test sensitivity. Throughout the acclimation and experiment period, the rats had free access to food and water. 5-8 rats were assigned to each testing group for the derivatives and were subcutaneously administered the derivatives at a dose of 10 nmol/kg or a vehicle (20 mM phosphate buffer, PB, pH 7.0), and the dosing timepoint was recorded for each group. After dosing, the rats were put back into cages where they were housed and could have access to food and water. Food consumption and weight change of the rats were recorded online or manually every 24 hours. Percent of weight change=(BWTn−BWT0)/BWT0*100%, wherein BW represented the value of body weight, and T0 and Tn represented the time point of dosing and n hours post dose respectively. Dots in the figures were represented utilizing mean±standard error of the mean (SEM).

[3] = target: T1, amylin receptor (hAMY3R) (Homo sapiens, UniProt O60896+P30988); experiment: Amylin receptor agonism testing, CRE-luciferase assay in stably transfected CHO-K1/Ga15/AMY3 cells; type: cell-based; conditions: for Fold change in activity against hAMY3R: relative to D1 as benchmark
T1 construct: host or cells: CHO-K1/Ga15/AMY3 cells, further stably transfected with a CRE-luciferase plasmid
T1 sequence (P30988 25-474): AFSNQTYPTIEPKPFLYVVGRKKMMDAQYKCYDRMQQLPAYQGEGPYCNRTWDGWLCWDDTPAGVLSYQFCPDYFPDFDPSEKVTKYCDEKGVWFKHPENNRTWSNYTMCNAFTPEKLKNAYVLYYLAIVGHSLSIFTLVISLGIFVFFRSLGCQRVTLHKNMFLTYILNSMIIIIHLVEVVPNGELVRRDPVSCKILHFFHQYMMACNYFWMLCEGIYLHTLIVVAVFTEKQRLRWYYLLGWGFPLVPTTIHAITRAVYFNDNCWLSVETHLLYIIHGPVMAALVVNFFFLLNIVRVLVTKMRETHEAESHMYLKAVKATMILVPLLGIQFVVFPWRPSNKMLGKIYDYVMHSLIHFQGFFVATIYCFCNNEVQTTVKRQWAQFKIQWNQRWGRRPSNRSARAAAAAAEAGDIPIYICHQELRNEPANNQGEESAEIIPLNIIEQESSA
T1 sequence (O60896 24-148): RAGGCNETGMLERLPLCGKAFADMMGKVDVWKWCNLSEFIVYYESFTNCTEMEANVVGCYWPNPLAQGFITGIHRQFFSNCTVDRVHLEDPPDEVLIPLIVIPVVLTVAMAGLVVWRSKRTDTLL

[4] = target: T2, calcitonin receptor (hCTR) (Homo sapiens, UniProt P30988); experiment: Calcitonin receptor agonism, CRE-luciferase assay in stably transfected CHO-K1/CALCR/Ga15 cells; type: cell-based; conditions: for Fold change in activity against hCTR: relative to D1 as benchmark
T2 construct: host or cells: CHO-K1/CALCR/Ga15 cells, further stably transfected with a CRE-luciferase plasmid
T2 sequence (P30988 25-474): T1 sequence (P30988 25-474)
Protocol: Using the standard protocol, CHO-K1/CALCR/Ga15 cells (purchased from GenScript, with the calcitonin receptor constructed already) were transfected with a plasmid containing a luciferase expression cassette driven by multiple copies of cAMP response elements (CREs). The cells were cultured in an F12 medium containing 200 ug/mL Zeocin, 2 ug/mL puromycin, and 100 ug/mL hygromycin to afford a stably transfected calcitonin receptor/CRE-luc cell line.
To each well of a white 96-well plate was added 50 μL of the tested sample solution at a respective concentration.
The stably transfected calcitonin receptor/CRE-luc CHO cells were resuspended in the growth medium at a certain density, and 50 μL of the cell suspension was added at a density of about 20,000 cells per well to the white 96-well plate containing the tested sample solution. After incubation of 24 hours at 37° C. and 5% CO2, 100 μL of a Luciferase substrate was added to each well, incubated for 3 minutes, and finally was tested for luminescence on SpectraMax L (Molecular Devices) with the software SoftMax Pro 7.0.3 GxP. A standard curve was plotted using the fluorescent intensities for calculation of EC50.

[5] = incubation of 24 hours, Table 3, read-out: EC50, activity against the amylin receptor in cells
[6] = incubation of 24 hours, Table 4, read-out: EC50, activity against the calcitonin receptor in cells

Structure (SMILES): CC(C)C[C@H](NC(=O)[C@H](CCCNC(=N)N)NC(=O)CNC(=O)[C@H](CC(C)C)NC(=O)[C@@H](NC(=O)[C@H](C)NC(=O)[C@@H](NC(=O)[C@H](CO)NC(=O)[C@H](CC(C)C)NC(=O)[C@H](CCC(N)=O)NC(=O)[C@H](CO)NC(=O)[C@H](C)NC(=O)COCCOCCNC(=O)COCCOCCNC(=O)[C@H](CCC(=O)O)NC(=O)CCCCCCCCCCCCCCCCCCC(=O)O)[C@@H](C)O)C(C)C)C(=O)N[C@@H](CO)C(=O)N[C@@H](CC(=O)O)C(=O)N[C@@H](CCC(=O)O)C(=O)N[C@@H](CC(C)C)C(=O)N[C@@H](Cc1c[nH]cn1)C(=O)N[C@@H](CCCNC(=N)N)C(=O)N[C@@H](CC(C)C)C(=O)N[C@@H](CCC(N)=O)C(=O)N[C@@H](CC(=O)O)C(=O)N[C@@H](Cc1ccc(O)cc1)C(=O)N1CCC[C@H]1C(=O)N[C@@H](CCCNC(=N)N)C(=O)N[C@H](C(=O)N[C@@H](CC(=O)O)C(=O)N[C@H](C(=O)NCC(=O)N[C@@H](CO)C(=O)NCC(=O)N[C@@H](CO)C(=O)N1CCC[C@H]1C(N)=O)C(C)C)[C@@H](C)O [M23] ({C20 diacid}-E[AEEA][AEEA]ASQLSTAVLGRLSDELHRLQDYPRTDVGSGSP-NH2)
Concentration change on 26 d [1]: −7.782%
Purity change on 7 d [1]: No change
Purity change on 26 d [1]: nearly no noticeable change in purity
effect on body weight of SD rats ([2]; FIGS. 1 and 3): apparently further reduced
effect on accumulated food intake of SD rats ([2]; FIGS. 2 and 4): apparently further reduced
EC50 [3, 5]: 0.017 nM

Structure (SMILES): CC(C)C[C@H](NC(=O)[C@H](CCCNC(=N)N)NC(=O)CNC(=O)[C@H](CC(C)C)NC(=O)[C@@H](NC(=O)[C@H](C)NC(=O)[C@@H](NC(=O)[C@H](CO)NC(=O)[C@H](CC(C)C)NC(=O)[C@H](CCC(N)=O)NC(=O)[C@H](CO)NC(=O)[C@H](C)NC(=O)C[C@H](NC(=O)CCCCCCCCCCCCCCCCCCC(=O)O)C(=O)O)[C@@H](C)O)C(C)C)C(=O)N[C@@H](CO)C(=O)N[C@@H](CC(=O)O)C(=O)N[C@@H](CCC(=O)O)C(=O)N[C@@H](CC(C)C)C(=O)N[C@@H](Cc1c[nH]cn1)C(=O)N[C@@H](CCCNC(=N)N)C(=O)N[C@@H](CC(C)C)C(=O)N[C@@H](CCC(N)=O)C(=O)N[C@@H](CC(=O)O)C(=O)N[C@@H](Cc1ccc(O)cc1)C(=O)N1CCC[C@H]1C(=O)N[C@@H](CCCNC(=N)N)C(=O)N[C@H](C(=O)N[C@@H](CC(=O)O)C(=O)N[C@H](C(=O)NCC(=O)N[C@@H](CO)C(=O)NCC(=O)N[C@@H](CO)C(=O)N1CCC[C@H]1C(N)=O)C(C)C)[C@@H](C)O [M12] ({C20 diacid-βAsp}-ASQLSTAVLGRLSDELHRLQDYPRTDVGSGSP-NH2)
EC50 [4, 6]: 0.073 nM
Fold change in activity against hCTR [4]: 1.178
Concentration change on 7 d [1]: No change (concentration change of less than 1% (denoted as “no change”))
Concentration change on 26 d [1]: −8.378%
Purity change on 7 d [1]: 1.12%
Purity change on 26 d [1]: −1.96%
Fold change in activity against hAMY3R [3]: 2.118

Structure (SMILES): CC(C)C[C@H](NC(=O)[C@H](CCCNC(=N)N)NC(=O)CNC(=O)[C@H](CC(C)C)NC(=O)[C@@H](NC(=O)[C@H](C)NC(=O)[C@@H](NC(=O)[C@H](CO)NC(=O)[C@H](CC(C)C)NC(=O)[C@H](CCC(N)=O)NC(=O)[C@H](CO)NC(=O)[C@H](C)NC(=O)[C@H]1CC[C@H](CNC(=O)CCCCCCCCCCCCCCCCC(=O)O)CC1)[C@@H](C)O)C(C)C)C(=O)N[C@@H](CO)C(=O)N[C@@H](CC(=O)O)C(=O)N[C@@H](CCC(=O)O)C(=O)N[C@@H](CC(C)C)C(=O)N[C@@H](Cc1c[nH]cn1)C(=O)N[C@@H](CCCNC(=N)N)C(=O)N[C@@H](CC(C)C)C(=O)N[C@@H](CCC(N)=O)C(=O)N[C@@H](CC(=O)O)C(=O)N[C@@H](Cc1ccc(O)cc1)C(=O)N1CCC[C@H]1C(=O)N[C@@H](CCCNC(=N)N)C(=O)N[C@H](C(=O)N[C@@H](CC(=O)O)C(=O)N[C@H](C(=O)NCC(=O)N[C@@H](CO)C(=O)NCC(=O)N[C@@H](CO)C(=O)N1CCC[C@H]1C(N)=O)C(C)C)[C@@H](C)O [M15] ({C18 diacid-Trx}-ASQLSTAVLGRLSDELHRLQDYPRTDVGSGSP-NH2)
Fold change in activity against hCTR [4]: 0.183
Concentration change on 7 d [1]: No change (concentration change of less than 1% (denoted as “no change”))
Concentration change on 26 d [1]: −10.824%
Purity change on 7 d [1]: No change
Purity change on 26 d [1]: −5.67%
EC50 ([3]; Table 5 integrated analysis, read-out: hAMY3R EC50): 0.119 nM
Fold change in activity against hAMY3R [3]: 0.303

Next, values leading:

EC50 [4, 6]: 0.081 nM
Fold change in activity against hCTR [4]: 1.061
Concentration change on 26 d [1]: −3.954%
Purity change on 7 d [1]: −1.59%
Purity change on 26 d [1]: −7.24%
EC50 [3, 5]: 0.007 nM
Fold change in activity against hAMY3R [3]: 5.143
Structure (SMILES): CC(C)C[C@H](NC(=O)[C@H](CCCNC(=N)N)NC(=O)CNC(=O)[C@H](CC(C)C)NC(=O)[C@@H](NC(=O)[C@H](C)NC(=O)[C@@H](NC(=O)[C@H](CO)NC(=O)[C@H](CC(C)C)NC(=O)[C@H](CCC(N)=O)NC(=O)[C@H](CO)NC(=O)[C@H](C)NC(=O)COCCOCCNC(=O)COCCOCCNC(=O)[C@H](CCC(=O)O)NC(=O)CCCCCCCCCCCCCCCCC(=O)O)[C@@H](C)O)C(C)C)C(=O)N[C@@H](CO)C(=O)N[C@@H](CC(=O)O)C(=O)N[C@@H](CCC(=O)O)C(=O)N[C@@H](CC(C)C)C(=O)N[C@@H](Cc1c[nH]cn1)C(=O)N[C@@H](CCCNC(=N)N)C(=O)N[C@@H](CC(C)C)C(=O)N[C@@H](CCC(N)=O)C(=O)N[C@@H](CC(=O)O)C(=O)N[C@@H](Cc1ccc(O)cc1)C(=O)N1CCC[C@H]1C(=O)N[C@@H](CCCNC(=N)N)C(=O)N[C@H](C(=O)N[C@@H](CC(=O)O)C(=O)N[C@H](C(=O)NCC(=O)N[C@@H](CO)C(=O)NCC(=O)N[C@@H](CO)C(=O)N1CCC[C@H]1C(N)=O)C(C)C)[C@@H](C)O [M24] ({C18 diacid}-E[AEEA][AEEA]ASQLSTAVLGRLSDELHRLQDYPRTDVGSGSP-NH2)

EC50 ([4]; Table 5 integrated analysis, read-out: hCTR EC50): 0.101 nM
Fold change in activity against hCTR [4]: 0.848
Concentration change on 26 d [1]: −5.268%
Purity change on 7 d [1]: No change
Purity change on 26 d [1]: −4.34%
increase in agonistic activity against the amylin receptor ([3]; compared with M17): ~70 folds
EC50 [3, 5]: 0.001 nM
Fold change in activity against hAMY3R [3]: 36.000
increase in the ratio of activity against the amylin receptor to agonistic activity against the calcitonin receptor ([3]; relative to the benchmark D1): about 42.5 fold
Structure (SMILES): CC(C)C[C@H](NC(=O)[C@H](CCCNC(=N)N)NC(=O)CNC(=O)[C@H](CC(C)C)NC(=O)[C@@H](NC(=O)[C@H](C)NC(=O)[C@@H](NC(=O)[C@H](CO)NC(=O)[C@H](CC(C)C)NC(=O)[C@H](CCC(N)=O)NC(=O)[C@H](CO)NC(=O)[C@H](C)NC(=O)COCCOCCNC(=O)COCCOCCNC(=O)C1CCN(C(=O)CCCCCCCCCCCCCCCCC(=O)O)CC1)[C@@H](C)O)C(C)C)C(=O)N[C@@H](CO)C(=O)N[C@@H](CC(=O)O)C(=O)N[C@@H](CCC(=O)O)C(=O)N[C@@H](CC(C)C)C(=O)N[C@@H](Cc1c[nH]cn1)C(=O)N[C@@H](CCCNC(=N)N)C(=O)N[C@@H](CC(C)C)C(=O)N[C@@H](CCC(N)=O)C(=O)N[C@@H](CC(=O)O)C(=O)N[C@@H](Cc1ccc(O)cc1)C(=O)N1CCC[C@H]1C(=O)N[C@@H](CCCNC(=N)N)C(=O)N[C@H](C(=O)N[C@@H](CC(=O)O)C(=O)N[C@H](C(=O)NCC(=O)N[C@@H](CO)C(=O)NCC(=O)N[C@@H](CO)C(=O)N1CCC[C@H]1C(N)=O)C(C)C)[C@@H](C)O [M30] ({C18 diacid-Inp-AEEA-AEEA}-ASQLSTAVLGRLSDELHRLQDYPRTDVGSGSP-NH2)
